Experimental data from PubChem BioAssay AID179 (DTP/NCI, 2004).
Where “and” joins values, the source holds several entries; their conditions need not be identical. Equal entries are not always repeated. Calls of active or inactive are those of the source.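 Rule for the calls: active = compounds giving half or more protection of infected cells from virus-caused growth loss, again on retest; inactive = the rest.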

System: CEM cells HIV-1 protection, formazan growth assay
Experiment: NCI AIDS Antiviral Assay
Conditions: for IC50: measured here: growth of uninfected CEM cells
In short: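 Screen of anti-HIV-1 activity in human CEM cells using a formazan-based growth measurement at five drug concentrations. Hits with 50% or greater protection were repeated, and confirmation required reproducible complete protection.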

| SMILES | EC50 [µM] | IC50 | outcome |
| --- | --- | --- | --- |
| CCC1C(=O)OCc2ccccc21 (stereo unspecified) | > 200 | > 200 µM |  |
| Cn1cc(S(=O)(=O)NC(=O)Nc2ccc(Cl)cc2)c2ccccc21 | > 200 | 27.5 µM |  |
| COc1ccc(-c2c(C#N)c(S)n(C3OC(COC(C)=O)C(OC(C)=O)C(OC(C)=O)C3OC(C)=O)c(=O)c2C#N)cc1 (stereo unspecified) | > 200 | > 200 µM |  |
| N#C/C(=C\c1ccc(Cl)cc1)C(=O)c1ccccc1 | > 83.2 | > 83.2 µM |  |
| CCC[CH2][Sn]1([CH2]CCC)[O]C(=O)c2ccc(N)cc2[O]1 |  |  | inactive |
| Cn1c(=O)oc2cc(C(O)CN3CCN(Cc4ccc5c(c4)OCO5)CC3)ccc21 (stereo unspecified) | > 200 | > 200 µM |  |
| O=C1NCCCCC1CCCC#Cc1ccccc1 (stereo unspecified) | > 74.1 | 45.7 µM |  |
| CCOC(=O)c1nc2ccc(C(F)(F)F)cc2nc1NCc1ccc(Cl)c(Cl)c1 | > 100 | 17 µM |  |
| CCc1nnc2sc3c(Cl)c4nn5c(CC)nnc5sc4c(Cl)c3nn12 | > 200 | 11.7 µM |  |
| Nn1c(=S)[nH]c2ccccc2c1=O | > 200 | > 200 µM |  |
| CC(=O)N/N=C(\N)c1nc2c(n3nc(C)nc13)CCCC2 | > 200 | 91.2 µM |  |
| CCCCCCC(C)CCCCCCCCCCC(=O)O (stereo unspecified) |  |  | inactive |
| CCOC(=O)C(=O)C1CCCCC1=O (stereo unspecified) | > 200 | 43.7 µM |  |
| NC(CCC(=O)NC(CS(=O)(=O)O)C(=O)O)C(=O)O (stereo unspecified) | > 603 | > 603 µM |  |
| O=C(NP(=O)(N1CC1)N1CC1)OCc1ccccc1 | > 200 | > 200 µM |  |
| COC1=C(CC(C)=O)C(=O)c2c(O)c(CO)cc(O)c2C1=O |  |  | inactive |
| CC[n+]1[b-](C(C)(C)C)n(/N=C(\C)C(C)(C)C)[b-](C(C)(C)C)[n+]1CC | > 200 | 31.6 µM |  |
| O=C(O)C1OC12CCCCC2 (stereo unspecified) | > 200 | > 200 µM |  |
| NC(CCCC(N)P(=O)(O)c1ccccc1)P(=O)(O)c1ccccc1 (stereo unspecified) | > 661 | > 661 µM |  |
| CCCCCCCc1ccc(OC2OC(COC(C)=O)C(OC(C)=O)C(OC(C)=O)C2OC(C)=O)cc1 (stereo unspecified) | > 91.2 | 49 µM and > 85.1 µM |  |
| Cc1cc(=O)n(-c2c(C)cccc2Cl)c(/C=C(\O)c2ccncc2)n1 | > 4.07 | > 4.07 µM |  |
| Cc1ccc(/C=C2\CCCC\C2=N\O)cc1 |  |  | inactive |

| SMILES | EC50 [µM] | IC50 | outcome |
| --- | --- | --- | --- |
| CCN(CCCc1ccccc1)CCCc1ccccc1 | > 200 | 105 µM |  |
| Cc1cccc2c1Sc1ccccc1C2NC(=O)CCN(C)C (stereo unspecified) | > 550 | 31.6 µM |  |
| CCc1cc(-c2ccco2)c(C#N)c(=S)n1C1OC(COC(C)=O)C(OC(C)=O)C(OC(C)=O)C1OC(C)=O (stereo unspecified) | > 200 | 79.4 µM |  |
| Clc1c2ccccc2[se][n+]1-c1ccccc1 | > 21.9 | 11.2 µM |  |
| CCOC(=O)CN1C(=O)c2c(NC(=O)C(=O)O)cccc2S1(=O)=O | > 200 | > 200 µM |  |
| CC(C)=CC1C(C(=O)N2CCCCCC2)C1(C)C (stereo unspecified) | > 200 | > 200 µM |  |
| OCC(O)C(OC1OC(CO)C(O)C(O)C1O)c1nn(-c2ccccc2)c2nc3cc(Cl)c(Cl)cc3cc12 (stereo unspecified) |  |  | inactive |
| CC(=O)[O-].CC(=O)[O-].O=C(N/N=C/c1cc(Cl)cc(Cl)c1O)c1ccncc1.[Ni+2] |  |  | inactive |
| N#C/C(=C\c1c[nH]c2ccccc12)C(=O)c1ccc(O)c(O)c1 | > 85.1 | 46.8 µM |  |
| N#CCC[P+](c1ccccc1)(c1ccccc1)c1ccccc1 | > 200 | 55 µM |  |
| CC1=C(O)C(=O)C(C2=C(O)C(=O)C(C)=C(O)C2=O)=C(O)C1=O | > 263 | 145 µM |  |
| CC1(C(=O)Nc2ccc3ccccc3c2)CC2(C)CC(C)(C1)C(O)NC2=O (stereo unspecified) |  |  | inactive |
| CCN(CC)CC(C(=O)Nc1c(C)cccc1C)/C(C)=N/NC(N)=S (stereo unspecified) | > 37.2 | > 37.2 µM |  |
| CC(=O)/C(=C/c1ccc(-c2ccccc2)cc1)C(=O)c1ccccc1 | 1.58 | 15.8 µM |  |
| Cc1c2c(cc3c1OCN(Cc1ccccc1)C3)CN(Cc1ccccc1)CO2 | > 200 | 30.9 µM |  |
| COc1ccc(C2OCCN2C)cc1 (stereo unspecified) | > 200 | > 200 µM |  |
| CCOC(=O)c1[nH]c(Br)c(-c2ccc(Br)cc2)c1Br | > 2 | 0.912 µM |  |
| O=C(O)c1ccccc1NS(=O)(=O)c1ccc([N+](=O)[O-])cc1 |  |  | inactive |
| O=C(c1ccccc1)N1CCN(C(=S)N(C(=O)c2ccccc2)c2ccccc2)C1=S | > 200 | 3.72 µM |  |
| C=[N+](CNC(=O)CNC(=O)C(Cc1ccccc1)NC(=O)OC(C)(C)C)C(=O)CNC(=O)C(Cc1ccccc1)NC(=O)OC(C)(C)C (stereo unspecified) | > 100 | > 100 µM |  |
| Cc1cn(CC(=O)NCCCO)c(=O)[nH]c1=O | > 200 | > 200 µM |  |
| O=C(NNC(=O)c1ccccc1O)c1cccs1 | > 200 | 16.2 µM |  |

| SMILES | EC50 [µM] | IC50 | outcome |
| --- | --- | --- | --- |
| Cc1[nH]c(N)nc(=S)c1CCC(=O)O | > 200 | > 200 µM |  |
| CN1C(=O)C2C(C1=O)[C@H]1c3ccccc3C=CN1[C@@H]2C(=O)c1ccccc1 (stereo partly specified) | > 200 | 148 µM |  |
| CCOc1ccc(NC2OC(CO)C(O)C(O)C2NC(C)=O)cc1 (stereo unspecified) | > 200 | > 200 µM |  |
| O=C(CCCCCCCCC(=O)N1C(=O)CC(=O)N(c2cccc(Cl)c2)C1=S)N1C(=O)CC(=O)N(c2cccc(Cl)c2)C1=S | > 200 | 85.1 µM |  |
| Nc1ccc(S(=O)(=O)c2ccc(NCNC(CSSCC(NCNc3ccc(S(=O)(=O)c4ccc(N)cc4)cc3)C(=O)O)C(=O)O)cc2)cc1 (stereo unspecified) | > 200 | 112 µM |  |
| O=C1N[C@H]2c3c(Cl)sc(Cl)c3C(=O)[C@H]2O1 | > 20 | 0.955 µM |  |
| O=C1C2C3C=CC(CC3)C2C(=O)C2C3C=CC(C3)C12 (stereo unspecified) | > 200 | 129 µM |  |
| CC1(O)C(=O)OC2CC([C@]3(O)CCC4[C@@H]5C[C@H]6O[C@]67[C@@H](O)C=CC(=O)[C@]7(C)C5CC[C@@]43C)C1(C)C2 (stereo partly specified) | > 200 | 11.7 µM |  |
| S=C(c1c[nH]c2ccccc12)N1CCOCC1 | > 200 | > 200 µM |  |
| COC(=O)C(C(=O)C(=O)Nc1ccc(C)cc1)c1nc2ccc([N+](=O)[O-])cc2[nH]c1=O (stereo unspecified) | > 44.7 | > 44.7 µM |  |
| CCCCc1ccc(-n2sc3ncc(C)cc3c2=O)cc1 | 1.23 | 21.9 µM |  |
| O=S(c1ccc(Cl)cc1)c1ccccc1C1=NCCN1 (stereo unspecified) | > 200 | > 200 µM |  |
| CC(C)C(=O)OCC1CCCN2CCCCC12 (stereo unspecified) | > 200 | > 100 µM |  |
| CO[C@@H]1C2=CC=CC=C[C@H]2n2c(=O)n(-c3ccccc3)c(=O)n21 | > 162 | 81.3 µM |  |
| COc1ccc2c(=O)c(-c3ccccc3)c(C)oc2c1 | > 200 | 75.9 µM |  |
| FC(F)(F)c1ccc2c(c1)N(CCCNCCN1CCOCC1)c1ccccc1S2 | > 355 | 20.9 µM |  |
| COc1ccc(NC(=O)Oc2ccc3c(C)cc(=O)oc3c2)c(OC)c1 (tested in a mixture with another compound) | > 100 | 46.8 µM |  |
| COC1OC(COC(=O)c2ccccc2)CC1F (stereo unspecified) | > 195 | 21.4 µM |  |
| COC(=O)[C@]1(C)CCC[C@]2(C)c3cc(Br)c(C(C)C)cc3CC[C@H]12 | > 100 | > 100 µM |  |
| CN(C)c1ccc(S(=O)Nc2ccccc2)cc1 (stereo unspecified) | > 200 | 85.1 µM |  |
| O=P1(Cc2ccccc2)OC2CC(Cl)CC(C2)O1 (stereo unspecified) | > 126 | > 126 µM |  |
| CC1C[C@@H]2OC(=O)C(C)[C@H]2C[C@]2(C)C(O)CC(O)C12 (stereo partly specified) | > 933 | 47.9 µM |  |

| SMILES | EC50 [µM] | IC50 | outcome |
| --- | --- | --- | --- |
| O=c1oc2ccccc2c(O)c1C(c1ccc2c(c1)Cc1ccccc1-2)c1c(O)c2ccccc2oc1=O | > 200 | 46.8 µM |  |
| C=C(C)CC1=C(C(=S)NCCO[Si](C)(C)C(C)(C)C)C(OCC)(OCC)C1=O | > 200 | 11.5 µM |  |
| N#CC(C#N)=C1CCN2CCCc3cccc1c32 | > 200 | 129 µM |  |
| CO[C@@H]1C[C@H]2[C@@H]3CC[C@H]([C@H](C)COC(C)=O)[C@@]3(C)CC[C@@H]2[C@@]2(C)CC[C@H]3C[C@]312 | > 100 | > 100 µM |  |
| COc1ccccc1/C=C1\C=Cc2ccccc21 | > 204 | 31.6 µM |  |
| Clc1ccc(COC(Cn2ccnc2)c2ccc(Cl)cc2Cl)cc1 (stereo unspecified) | > 200 | 34.7 µM |  |
| C[C@]12CC[C@H](OC3OC(CO)C(O)C(O)C3O)C[C@H]1CC[C@@H]1[C@@H]2CC[C@]2(C)[C@@H](C3=CCOC3=O)CC[C@]12O (stereo partly specified) | > 100 | 0.0661 µM |  |
| Oc1cccc2cc(Cl)cnc12 | > 20 | 8.32 µM |  |
| C=C1CC2CC(O)CC(C1)C2 (stereo unspecified) |  |  | inactive |
| COc1cc(/C=C/C(=O)OC[C@]23O[C@H]2[C@@H](OC2OC(C)C(O)C(O)C2O)C2C=CO[C@@H](OC4OC(CO)C(O)C(O)C4O)C23)ccc1O (stereo partly specified) | > 200 | > 200 µM |  |
| COc1ccccc1NC(=O)C(=O)Cc1cnc2ccccc2n1 | > 209 | 138 µM |  |
| CC(CC(=O)Nc1ccc(NC(=O)CC(C)N=NC(N)=S)cc1)N=NC(N)=S (stereo unspecified) | > 158 | 102 µM |  |
| O=C1Nc2nc(=O)nc3[nH]c(=O)nc(n23)N1 | > 251 | > 251 µM |  |
| COC(=O)c1cccc2cccc(C(=O)Nc3ccc(C)cc3C)c12 | > 2.24 | > 2.24 µM |  |
| CC1(C)CCCCC1/C=C/C(CC(O)(C(F)(F)F)C(F)(F)F)=N\Nc1ccc([N+](=O)[O-])cc1[N+](=O)[O-] (stereo unspecified) | > 2 | 0.468 µM |  |
| NCCN.NCCN.O=C([O-])CCl.O=C([O-])CCl.[Co+3].[O-][Cl+3]([O-])([O-])[O-] |  |  | inactive |
| CN1CCCn2c(nc3ccccc3c2=O)C1 | > 1100 | > 1100 µM |  |
| O=[N+]([O-])C1C2C=CC(C2)[C@H]1c1ccccc1Cl (stereo partly specified) |  |  | inactive |
| Cc1cc2c(c(C(=O)O)c1C)-c1cccc(Cl)c1C2=O |  |  | inactive |
| CCOC(=O)[C@@]12C[C@@H](C#N)C1N(Cc1ccccc1)[C@@H]1ON=C(c3ccc(Cl)cc3)[C@@H]1C2 (stereo partly specified) |  |  | inactive |
| CCOC(=O)c1ccc(C(=O)/C(C(=O)OC(C)(C)C)=C2\CCCN2C)n1C | 89.1 | 141 µM |  |
